Experimental data published in publication PMC8318231, “Rate-of-Kill (RoK) assays to triage large compound sets for Chagas disease drug discovery: Application to GSK Chagas Box” (PLoS Neglected Tropical Diseases, 2021).
Like-named read-outs stand apart in the source and are kept apart here.

What was measured:
[1] = test system: TcCYP51; conditions: cited from earlier work; for CYP51 pIC50: formerly reported
[2] = test system: T. cruzi Tulahuen trypomastigotes; assay: T. cruzi trypomastigote assay (Cell Titer-Glo viability, ATP luminescence); type: cell-based, Trypanosoma cruzi; conditions: for IC50: Trypanosoma cruzi, TULAHUEN; for Trypomastigotes pIC50 48 hours: 48 hours incubation; for Trypomastigotes pIC50 48 hours / Trypomastigotes pIC50 72 hours: pIC50 = -log10 IC50 in molar units; for Trypomastigotes pIC50 72 hours: 72 hours incubation
Outline: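 Compounds were tested in dose response or once at a final 5 μM against 5 × 10^4 trypomastigotes per well (DMEM, 2% FBS), collected on days 5–8 from LLC-MK2 infected cultures. ATP luminescence via CellTiter-Glo reports live parasites; DMSO defines 0% and cell-free wells 100% effect.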

[3] = test system: T. cruzi intracellular amastigotes in H9c2 cells; assay: Rate-of-Kill (RoK) high-content imaging assay, amastigotes per cell (AM/CELL) and curve descriptors; type: cell-based, Trypanosoma cruzi; design: key to ME_24h / ME_48h / ME_72h: % reduction in parasite burden (cidal response); t50pct_MCC50 / t50pct_Cmax: unit not given here; conditions: for ME_24h: 24h; for ME_48h: 48h; for ME_72h: 72h; for Emax: Trypanosoma cruzi, H9c2, read-out: ME 24h (maximum effect at 24 hours, intracellular amastigotes); for Emax / ME 24h (maximum effect at 24 hours, intracellular amastigotes): maximum percentage of parasite burden reduction reached by any concentration, 24 hours; for t50%_Cmax / tlag_Cmax / t50pct_Cmax: at Cmax; for ME_24h (%): maximum effect at 24 h; for ME_24h (%) / ME_48h (%) / ME_72h (%): RoK assay; for ME_48h (%): maximum effect at 48 h; for ME_72h (%): maximum effect at 72 h
Protocol: For this high-content intracellular imaging assay, H9c2 cells were seeded in 225 cm^2 T- FLASK in DMEM with 10% FBS for 4 h to allow attachment. T. cruzi trypomastigotes, collected at days 5 to 8 after infection from LLC-MK2 parasite infected cultures, were allowed to swim out for 4 h at 37°C from a centrifuged pellet (1,600 x g / 10 min). Trypomastigotes were then collected and counted in a CASY Cell Counter using the 60 μm capillary. Trypomastigotes, in supplemented DMEM, were added to H9c2 cultures in a multiplicity of infection (MOI) of 8 and incubated for 18 h. Cells were washed once with PBS before incubation of the infected H9c2 monolayer with trypsin (Life-Technologies) to detach cells from the flask. Cells were counted in a CASY Cell Counter, using the 150 μm capillary, and their density set at 5 x 10^4 cells/mL in supplemented DMEM. Infected H9c2 were dispensed into 384-well plates at 50 μL per well using a Multidrop Combi dispenser. Control wells used to determine a 100% parasitic growth (full 6th column of each plate) were left untreated, whereas not infected cells were added in the control wells used as 0% parasite growth (or 100% parasite growth inhibition; full 18th column of each plate). The four plates corresponding to each RoK assay were predispensed for the same mother plate. […] Cultures were then fixed and stained with 50 μL per well of a PBS solution containing 4% formaldehyde and 2 μM DRAQ5 DNA dye (BioStatus, UK). Then plates were read in a PerkinElmer Opera Phenix using a 20x objective, 3 fields per well. DRAQ5 signal was detected using 640 nm excitation laser and a 690/50 nm emission detection filter. Automated image analysis was performed with a script developed on Acapella High Content Imaging and Analysis Software (PerkinElmer). Two outputs were provided for each sample well: (1) number of host cells nuclei to determine drug-related cytotoxicity (aka H9c2) and (2) number of amastigotes per cell as infection level measurement (aka AM/CELL). Each output is plotted as a time course for each compound at every concentration. This assay was adapted from Alonso-Padilla et al. and Peña et al..
To identify and classify the different compounds, the number of amastigotes per cell (AM/CELL) raw data obtained in rate of kill assay are normalised using the average of C1 (infected cells) at time 4 hours as 0% effect and the average of C2 (non-infected cells) for each time as 100% effect, according to the following Eq 1: %CIDALRESPONSE=100*[Avg_C14h-RawData]/[Avg_C14h-Avg_C2] (1)
• ME (Maximum Effect) is the maximum percentage of parasite burden reduction reached by any compound concentration. Compounds that decrease the initial parasite load will show a positive value of ME, whereas compounds that allow the progression of infection will render a negative ME value. […] It is calculated for the MCC50 (t50%_MCC50) and for the maximum concentration (t50%_Cmax). […] The value of this parameter is not either interpolated or extrapolated, and it refers to the first experimental time-course point at which a 50% of effect is reached or exceeded. • tlag defines the time elapsed for one particular concentration to reduce parasite burden between two consecutive points at any moment of the time course. It is calculated for the MCC50 (tlag_MCC50) and for the maximum concentration (tlag_Cmax). The value of this parameter is not either interpolated or extrapolated, and it refers to the first experimental time-course point of a positive slope in the normalised plot (i.e. %Cidal_Response). • Cmin_Tox (Minimal CytoToxic Concentration) is the lowest compound concentration that is reducing the number of host mammalian cells below 50% of initial cell density. Cytotoxic compounds may mislead a bona fide antiparasitic action.

[4] = 48 h, read-out: Trypomastigotes pIC50 48 hours (converted)
[5] = 72 h, read-out: Trypomastigotes pIC50 72 hours (converted)

Row | SMILES | CYP51 pIC50 [1] | ME (maximum effect) in RoK assay (in words) [3] | ME_24h ([3]; figure 5) | ME_48h ([3]; figure 5) | ME_72h ([3]; figure 5) | MCC50 ([3]; RoK curve descriptor) [µM] | MCCE ([3]; RoK curve descriptor) [µM] | t50%_Cmax [3] [h] | tlag_Cmax [3] [h] | t50pct_Cmax ([3]; figure 5) | tlag_Cmax ([3]; figure 5) | t50%_MCC50 ([3]; at MCC50) [h] | tlag_MCC50 ([3]; at MCC50) [h] | t50pct_MCC50 ([3]; at MCC50, figure 5) | tlag_MCC50 ([3]; at MCC50, figure 5) | MCCE ([3]; figure 5) | MCC50 ([3]; figure 5, in µM) | ME_24h (%) [3] [%] | ME_48h (%) [3] [%] | ME_72h (%) [3] [%] | also measured
1 | CC1CS(=O)(=O)CCN1/N=C/c1ccc([N+](=O)[O-])o1 (stereo not shown) [Nifurtimox, nifurtimox, reference compound] | < 4 | higher ME values close to 100% | 79.7791 | 100.284 | 96.6694 | 7.5 | 1.9 | 24.0 | 4.0 | 25.3333 | 4 | 48.2 | 8.9 | 48.2222 | 8.889 | 1.852 | 7.545 | 79.8 | 100.3 | 96.7 | CYP51 mean ([1]; TcCYP51 enzyme inhibition, mean, figure 1B, ref original boxes paper): 4.3; activity in trypomastigotes assay (in words) ([2]; 48 and 72 hours): active; IC50 [2, 4]: 1260 nM; IC50 [2, 5]: 1260 nM; IC50 ([2]; 72 hours, plotted values, censored values given without sign, read-out: 72 pIC50 (trypomastigotes, raw data of Fig 1D) (converted)): 1260 nM; IC50 ([2]; trypomastigote assay, 48 h, figure 1A, read-out: 48 pIC50 (converted)): 1260 nM; IC50 ([2]; trypomastigote assay, 72 h, figure 1A, read-out: 72 pIC50 (converted)): 1260 nM; pIC50 versus trypomastigotes ([2]; invariable at the two incubation times tested): 5.9; tlag (in words) [3]: short t-lag values; t50pct_Cmax (t50%_Cmax) ([3]; Fig 2C, average, time to reduce 50% of initial parasite load at maximum concentration): 24 h; AM/CELL NORM ([3]; Time 4, figure 4 A): -6.175; AM/CELL NORM ([3]; Time 24, figure 4 A): 78.541; AM/CELL NORM ([3]; Time 48, figure 4 A): 98.3875; AM/CELL NORM ([3]; Time 72, figure 4 A): 101.766; Emax [3]: 81.7%
2 | Cc1sc(C)c(C(F)(F)F)c1CNCCCNc1cc(=O)c2ccccc2[nH]1.Cl [TCMDC-140766] | 4.7 | high ME at 24 hours and 72 hours | 54.6006 | 64.1651 | 71.5778 | 5.6 | 0.6 | 24.0 | 4.0 | 24 | 4 | 72.0 | 4.0 | 72 | 4 | 0.6173 | 5.556 | 54.6 | 64.2 | 71.6 | Trypomastigotes pIC50 48 hours [2]: 4.9; Trypomastigotes pIC50 72 hours [2]: 5.3; tlag (in words) [3]: short tlag times; AM/CELL NORM ([3]; Time 4, figure 4 A): 7.643; AM/CELL NORM ([3]; Time 24, figure 4 A): 58.2122; AM/CELL NORM ([3]; Time 48, figure 4 A): 67.454; AM/CELL NORM ([3]; Time 72, figure 4 A): 69.5653; ME 24h (maximum effect at 24 hours, intracellular amastigotes) [3]: 58.2122%
3 | CC(C)N(C(=O)CN1C(=O)C(N)C(=O)N(c2ccccc2)c2ccccc21)c1ccccc1 (stereo not shown) [TCMDC-143071] | 6.5 |  | -154.934 | -40.5762 | 63.3605 | 5.6 | 0.6 | 72.0 | 24.0 | 72 | 24 | 72.0 | 24.0 | 72 | 24 | 0.6173 | 5.556 | -154.9 | -40.6 | 63.4 | Trypomastigotes pIC50 48 hours [2]: < 4.3; Trypomastigotes pIC50 72 hours [2]: < 4.3; 72 pIC50 (trypomastigotes, raw data of Fig 1D) ([2]; 72 hours, plotted values, censored values given without sign): < 4.3; 48 pIC50 ([2]; trypomastigote assay, 48 h, figure 1A): < 4.3; 72 pIC50 ([2]; trypomastigote assay, 72 h, figure 1A): < 4.3; 72 pIC50 ([2]; trypomastigote assay, 72 h, figure 1B): < 4.3; AM/CELL NORM ([3]; Time 4, sheet figure 4 A): -6.592; AM/CELL NORM ([3]; Time 24, sheet figure 4 A): -184.227; AM/CELL NORM ([3]; Time 48, sheet figure 4 A): -40.5762; AM/CELL NORM ([3]; Time 72, sheet figure 4 A): 57.0597; ME 24h (maximum effect at 24 hours, intracellular amastigotes) [3]: -154.934%
4 | O=c1[nH]cnc2c([C@@H]3O[C@H](CO)[C@@H](O)[C@H]3O)n[nH]c12 [TCMDC-143083, Formycin B] | < 4 | ME positive for all times | 45.1391 | 64.8809 | 83.4402 | 3.7 | 0.6 | 48.0 | 4.0 | 48 | 4 | 60.0 | 4.0 | 60 | 4 | 0.6173 | 3.7037 | 45.1 | 64.9 | 83.4 | activity versus trypomastigotes at 48 hours (in words) ([2]; 48 hours): inactive; activity versus trypomastigotes at 72 hours (in words) ([2]; 72 hours): active; IC50 [2, 4]: > 50100 nM; IC50 [2, 5]: 2510 nM; cidality in the RoK assay (in words) [3]: cidal; AM/CELL NORM ([3]; Time 4, sheet figure 4 A): 22.2526; AM/CELL NORM ([3]; Time 24, sheet figure 4 A): 28.621; AM/CELL NORM ([3]; Time 48, sheet figure 4 A): 68.9466; AM/CELL NORM ([3]; Time 72, sheet figure 4 A): 69.7149; Emax [3]: 48.3%
5 | COc1ccc(CN(C)Cc2ccncc2)cc1-c1ccc(S(=O)(=O)NC2CCC2)s1.O=C(O)C(F)(F)F.O=C(O)C(F)(F)F [TCMDC-143084] | 7.1 |  | -28.7145 | 25.1182 | 44.4783 |  | 0.6 |  | 24.0 | 72 | 24 |  |  | 72 | 72 | 0.6173 |  | -28.7 | 25.1 | 44.5 | Trypomastigotes pIC50 48 hours [2]: 5; Trypomastigotes pIC50 72 hours [2]: 4.9; AM/CELL NORM ([3]; Time 4, sheet figure 4 A): -8.521; AM/CELL NORM ([3]; Time 24, sheet figure 4 A): -28.7145; AM/CELL NORM ([3]; Time 48, sheet figure 4 A): 25.1182; AM/CELL NORM ([3]; Time 72, sheet figure 4 A): 44.4783; MCC50 ([3]; figure 5): 50 µM; ME 24h (maximum effect at 24 hours, intracellular amastigotes) [3]: -28.7145%
